Measurements: ChEMBL document CHEMBL1201862, “PubChem BioAssay data set” (2004)
Activity calls are given as the source filed them.

Legend:
[1] = biological target: T1, Low molecular weight phosphotyrosine protein phosphatase (Homo sapiens, UniProt P24666); assay type: functional; conditions: read-out: IC50_Mean
T1 sequence (P24666 whole entry): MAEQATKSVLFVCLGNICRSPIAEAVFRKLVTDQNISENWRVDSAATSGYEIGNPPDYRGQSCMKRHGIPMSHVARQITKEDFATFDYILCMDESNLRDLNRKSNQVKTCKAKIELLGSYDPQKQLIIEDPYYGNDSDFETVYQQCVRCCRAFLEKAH

[2] = biological target: T1, Low molecular weight phosphotyrosine protein phosphatase; assay type: functional; conditions: read-out: IC50_Mean; remark: listed apart in the source
Cytochrome P450 3A4 = Cytochrome P450 3A4 (Homo sapiens, UniProt P08684);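 further: CYP3A4 tested as one member of a cytochrome P450 panel screen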
Cytochrome P450 2C9 = Cytochrome P450 2C9 (Homo sapiens, UniProt P11712)
Cytochrome P450 2C19 = Cytochrome P450 2C19 (Homo sapiens, UniProt P33261); experiment: Cytochrome panel assay with activity outcomes. Panel member name: p450-cyp2c19 Compounds with AC50 equal or less than 10 uM are considered active; assay type: functional; conditions: read-out: AC50
[3] = biological target: T2, Sentrin-specific protease 8 (Homo sapiens, UniProt Q96LD8); assay type: functional;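 further: luminescence read-out of SENP8 inhibition, dose-response confirmation following an ultra-high-throughput screen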
T2 sequence (Q96LD8 whole entry): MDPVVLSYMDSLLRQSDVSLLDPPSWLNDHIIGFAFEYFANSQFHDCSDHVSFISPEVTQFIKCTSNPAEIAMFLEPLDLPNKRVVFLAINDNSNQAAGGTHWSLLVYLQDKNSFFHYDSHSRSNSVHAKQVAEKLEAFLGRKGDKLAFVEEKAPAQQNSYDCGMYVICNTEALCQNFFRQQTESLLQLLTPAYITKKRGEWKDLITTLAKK

[4] = biological target: T3, Sentrin-specific protease 7 (Homo sapiens, UniProt Q9BQF6); assay type: functional;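 further: Luminescence-based dose-response confirmation of ultra-high-throughput screening hits, measuring inhibition of SENP7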
T3 sequence (Q9BQF6 whole entry): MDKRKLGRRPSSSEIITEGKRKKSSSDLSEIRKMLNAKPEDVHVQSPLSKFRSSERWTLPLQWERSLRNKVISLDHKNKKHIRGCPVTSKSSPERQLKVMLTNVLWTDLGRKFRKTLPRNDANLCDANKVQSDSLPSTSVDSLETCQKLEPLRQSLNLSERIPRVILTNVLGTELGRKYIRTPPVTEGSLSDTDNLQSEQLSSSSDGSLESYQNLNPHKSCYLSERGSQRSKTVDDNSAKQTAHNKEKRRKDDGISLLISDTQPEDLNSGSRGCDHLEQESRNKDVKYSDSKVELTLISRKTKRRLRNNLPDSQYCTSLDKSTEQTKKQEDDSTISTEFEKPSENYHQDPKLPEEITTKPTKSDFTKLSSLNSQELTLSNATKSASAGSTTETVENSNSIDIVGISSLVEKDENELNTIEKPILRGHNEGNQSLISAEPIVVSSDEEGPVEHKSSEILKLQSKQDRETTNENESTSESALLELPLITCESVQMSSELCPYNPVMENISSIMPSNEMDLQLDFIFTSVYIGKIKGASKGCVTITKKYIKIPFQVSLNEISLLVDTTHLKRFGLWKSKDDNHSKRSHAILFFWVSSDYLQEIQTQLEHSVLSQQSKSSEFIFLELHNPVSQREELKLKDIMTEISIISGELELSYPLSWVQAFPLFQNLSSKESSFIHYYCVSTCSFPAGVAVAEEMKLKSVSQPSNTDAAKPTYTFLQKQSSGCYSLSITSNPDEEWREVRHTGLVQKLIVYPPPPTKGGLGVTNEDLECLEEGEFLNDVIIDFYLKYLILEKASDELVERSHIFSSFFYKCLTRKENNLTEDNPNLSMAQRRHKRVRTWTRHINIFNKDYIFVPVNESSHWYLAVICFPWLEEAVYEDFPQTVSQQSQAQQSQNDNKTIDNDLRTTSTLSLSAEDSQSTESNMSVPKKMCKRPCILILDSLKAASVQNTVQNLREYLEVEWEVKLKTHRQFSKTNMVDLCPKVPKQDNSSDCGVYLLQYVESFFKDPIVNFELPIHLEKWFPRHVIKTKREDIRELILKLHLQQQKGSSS

[5] = biological target: T4, Sentrin-specific protease 6 (Homo sapiens, UniProt Q9GZR1); assay type: functional;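 further: Luminescence-based dose-response confirmatory assay of SENP6 inhibition, following up an ultra-high-throughput screen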
T4 sequence (Q9GZR1 whole entry): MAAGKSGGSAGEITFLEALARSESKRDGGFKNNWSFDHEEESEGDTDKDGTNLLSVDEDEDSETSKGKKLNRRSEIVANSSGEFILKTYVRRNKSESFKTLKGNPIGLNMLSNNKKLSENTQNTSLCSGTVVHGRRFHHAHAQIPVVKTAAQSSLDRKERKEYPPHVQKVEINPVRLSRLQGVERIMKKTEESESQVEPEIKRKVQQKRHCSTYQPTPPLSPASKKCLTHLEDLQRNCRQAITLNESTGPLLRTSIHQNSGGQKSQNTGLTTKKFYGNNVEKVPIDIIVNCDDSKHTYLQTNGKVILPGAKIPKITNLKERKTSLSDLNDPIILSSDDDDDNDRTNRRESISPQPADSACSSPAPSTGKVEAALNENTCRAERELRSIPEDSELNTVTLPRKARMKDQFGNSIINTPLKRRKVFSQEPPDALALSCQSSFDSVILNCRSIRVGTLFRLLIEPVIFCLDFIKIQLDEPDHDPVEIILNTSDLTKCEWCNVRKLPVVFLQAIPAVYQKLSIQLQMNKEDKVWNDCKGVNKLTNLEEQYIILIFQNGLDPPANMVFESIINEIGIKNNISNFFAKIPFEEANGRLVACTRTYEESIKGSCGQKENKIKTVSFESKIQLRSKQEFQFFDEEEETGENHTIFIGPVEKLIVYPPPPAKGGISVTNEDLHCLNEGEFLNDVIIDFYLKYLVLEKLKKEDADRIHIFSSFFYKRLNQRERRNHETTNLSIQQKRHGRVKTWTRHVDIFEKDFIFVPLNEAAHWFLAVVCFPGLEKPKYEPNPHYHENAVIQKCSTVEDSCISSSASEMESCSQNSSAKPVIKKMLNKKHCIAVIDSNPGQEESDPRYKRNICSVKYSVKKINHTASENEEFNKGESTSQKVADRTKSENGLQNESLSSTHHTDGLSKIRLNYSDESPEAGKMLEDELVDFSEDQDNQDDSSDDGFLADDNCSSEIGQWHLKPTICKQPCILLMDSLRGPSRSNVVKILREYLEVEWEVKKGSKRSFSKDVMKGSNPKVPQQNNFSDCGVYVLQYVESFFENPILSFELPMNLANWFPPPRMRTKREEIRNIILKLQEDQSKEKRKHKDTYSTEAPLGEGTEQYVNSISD

Caspase-3 = biological target: T5, Caspase-3 (Homo sapiens, UniProt P42574); assay type: functional;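 further: Dose-response selectivity test against caspase-3 for candidate inhibitors of sentrin-specific proteases (SENPs)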
T5 sequence (P42574 whole entry): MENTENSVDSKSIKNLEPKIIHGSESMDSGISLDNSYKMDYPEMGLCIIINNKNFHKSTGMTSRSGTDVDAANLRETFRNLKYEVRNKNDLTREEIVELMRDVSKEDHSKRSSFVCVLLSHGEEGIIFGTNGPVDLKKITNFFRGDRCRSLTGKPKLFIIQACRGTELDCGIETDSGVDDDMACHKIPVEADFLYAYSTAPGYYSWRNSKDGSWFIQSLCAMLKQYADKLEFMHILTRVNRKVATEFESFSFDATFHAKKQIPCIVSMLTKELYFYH

[6] = biological target: Adenosylmethionine-8-amino-7-oxononanoate aminotransferase (Mycobacterium tuberculosis, UniProt P9WQ81); experiment: Mycobacterium tuberculosis BioA enzyme inhibitor Measured in Biochemical System Using Plate Reader - 2163-02_Inhibitor_Dose_CherryPick_Activity.; assay type: functional, Mycobacterium tuberculosis UT205
[7] = biological target: T6, Apoptotic protease-activating factor 1 (Homo sapiens, UniProt O14727); experiment: SAR analysis of small molecule Activators of Apaf-1 in a Fluorescent assay.; assay type: functional; conditions: read-out: EC50_Mean;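 further: caspase-3 cleavage of fluorogenic Rh110 DEVD substrate downstream of apoptosome activation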
T6 sequence (O14727 whole entry): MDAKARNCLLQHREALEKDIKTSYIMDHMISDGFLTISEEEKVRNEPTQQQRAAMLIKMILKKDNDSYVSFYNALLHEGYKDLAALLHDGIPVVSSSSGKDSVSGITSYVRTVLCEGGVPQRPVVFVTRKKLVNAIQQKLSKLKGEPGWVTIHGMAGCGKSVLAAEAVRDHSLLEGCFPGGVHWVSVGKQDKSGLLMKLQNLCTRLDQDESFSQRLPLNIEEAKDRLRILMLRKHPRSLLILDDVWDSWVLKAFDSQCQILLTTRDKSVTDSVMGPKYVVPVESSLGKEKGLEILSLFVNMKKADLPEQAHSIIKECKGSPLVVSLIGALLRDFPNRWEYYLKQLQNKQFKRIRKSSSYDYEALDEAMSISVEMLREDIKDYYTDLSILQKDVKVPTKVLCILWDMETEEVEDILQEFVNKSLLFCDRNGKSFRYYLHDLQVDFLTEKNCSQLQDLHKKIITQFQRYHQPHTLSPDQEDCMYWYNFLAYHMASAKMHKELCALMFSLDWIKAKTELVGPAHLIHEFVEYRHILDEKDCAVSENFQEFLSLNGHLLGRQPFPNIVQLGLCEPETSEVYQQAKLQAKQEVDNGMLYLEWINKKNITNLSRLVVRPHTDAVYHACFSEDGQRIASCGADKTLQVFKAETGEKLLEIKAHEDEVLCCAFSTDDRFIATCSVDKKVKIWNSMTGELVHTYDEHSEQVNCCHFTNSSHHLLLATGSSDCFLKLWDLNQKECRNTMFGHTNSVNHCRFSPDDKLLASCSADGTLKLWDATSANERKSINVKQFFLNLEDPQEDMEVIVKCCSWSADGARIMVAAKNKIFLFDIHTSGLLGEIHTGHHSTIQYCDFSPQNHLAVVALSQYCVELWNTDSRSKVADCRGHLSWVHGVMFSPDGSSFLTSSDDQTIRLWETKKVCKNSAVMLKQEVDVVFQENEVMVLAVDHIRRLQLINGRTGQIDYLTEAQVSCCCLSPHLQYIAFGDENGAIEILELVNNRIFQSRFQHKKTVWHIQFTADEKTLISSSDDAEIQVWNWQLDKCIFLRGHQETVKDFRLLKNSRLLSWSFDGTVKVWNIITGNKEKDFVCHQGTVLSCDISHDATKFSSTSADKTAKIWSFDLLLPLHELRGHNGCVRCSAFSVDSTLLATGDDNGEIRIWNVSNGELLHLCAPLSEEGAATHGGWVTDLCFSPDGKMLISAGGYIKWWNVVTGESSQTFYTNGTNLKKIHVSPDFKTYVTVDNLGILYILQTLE

[8] = biological target: T7, Polyadenylate-binding protein 1 (Homo sapiens, UniProt P11940); experiment: PABP1 MLLE–PAM2 interaction inhibitors, dose response, miRNA deadenylation inhibitor project, biochemical, fluorescence polarization, Cy5-PAM2 peptide, secondary (AID 602260); assay type: functional; conditions: read-out: IC50_Mean
[9] = NIH-3T3 fibroblast cytotoxicity, dose response, cytotoxicity control, cell-based, fluorescence, Alamar Blue, secondary assay (AID 2327); assay type: functional;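 further: NIH-3T3 mouse fibroblasts cultured with fluconazole at 8 µg/mL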
[10] = biological target: T7, Polyadenylate-binding protein 1; experiment: PABP1 MLLE–PAM2 binding inhibitor potency, dose response, biochemical, fluorescence polarization, FITC-PAM2 peptide (AID 602259); assay type: functional; conditions: read-out: IC50_Mean
[11] = C. albicans growth with fluconazole, confirmation, fluorescence, retest (AID 2467); assay type: functional, cell-based
[12] = biological target: Aryl hydrocarbon receptor (Homo sapiens, UniProt P35869); conditions: Potency;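 further: confirmatory quantitative high-throughput screen measuring activation of the AhR signaling pathway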
Sequence of Aryl hydrocarbon receptor (P35869 whole entry): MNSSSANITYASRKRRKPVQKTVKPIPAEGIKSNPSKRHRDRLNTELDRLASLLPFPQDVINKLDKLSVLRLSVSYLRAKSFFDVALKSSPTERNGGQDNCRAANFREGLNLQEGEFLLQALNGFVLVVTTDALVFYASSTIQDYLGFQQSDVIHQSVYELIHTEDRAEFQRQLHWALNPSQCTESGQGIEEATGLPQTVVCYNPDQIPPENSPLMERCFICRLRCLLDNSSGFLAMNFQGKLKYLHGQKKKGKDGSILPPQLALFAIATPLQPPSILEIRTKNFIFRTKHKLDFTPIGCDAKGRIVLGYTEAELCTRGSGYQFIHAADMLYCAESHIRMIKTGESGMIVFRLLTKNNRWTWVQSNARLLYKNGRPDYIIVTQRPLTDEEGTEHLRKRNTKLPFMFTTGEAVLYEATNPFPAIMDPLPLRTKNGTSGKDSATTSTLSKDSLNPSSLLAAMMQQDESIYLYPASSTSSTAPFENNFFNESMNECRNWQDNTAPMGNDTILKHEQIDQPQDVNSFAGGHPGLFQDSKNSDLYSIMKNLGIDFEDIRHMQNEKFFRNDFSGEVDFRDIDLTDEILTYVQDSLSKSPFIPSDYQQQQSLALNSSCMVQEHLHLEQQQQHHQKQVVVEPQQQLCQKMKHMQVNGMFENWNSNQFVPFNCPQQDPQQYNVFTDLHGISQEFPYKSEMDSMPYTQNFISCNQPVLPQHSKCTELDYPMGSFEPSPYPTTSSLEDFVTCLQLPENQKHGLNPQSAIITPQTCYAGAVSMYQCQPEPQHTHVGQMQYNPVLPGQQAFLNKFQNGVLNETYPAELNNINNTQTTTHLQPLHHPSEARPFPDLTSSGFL

T7 sequence (P11940 whole entry): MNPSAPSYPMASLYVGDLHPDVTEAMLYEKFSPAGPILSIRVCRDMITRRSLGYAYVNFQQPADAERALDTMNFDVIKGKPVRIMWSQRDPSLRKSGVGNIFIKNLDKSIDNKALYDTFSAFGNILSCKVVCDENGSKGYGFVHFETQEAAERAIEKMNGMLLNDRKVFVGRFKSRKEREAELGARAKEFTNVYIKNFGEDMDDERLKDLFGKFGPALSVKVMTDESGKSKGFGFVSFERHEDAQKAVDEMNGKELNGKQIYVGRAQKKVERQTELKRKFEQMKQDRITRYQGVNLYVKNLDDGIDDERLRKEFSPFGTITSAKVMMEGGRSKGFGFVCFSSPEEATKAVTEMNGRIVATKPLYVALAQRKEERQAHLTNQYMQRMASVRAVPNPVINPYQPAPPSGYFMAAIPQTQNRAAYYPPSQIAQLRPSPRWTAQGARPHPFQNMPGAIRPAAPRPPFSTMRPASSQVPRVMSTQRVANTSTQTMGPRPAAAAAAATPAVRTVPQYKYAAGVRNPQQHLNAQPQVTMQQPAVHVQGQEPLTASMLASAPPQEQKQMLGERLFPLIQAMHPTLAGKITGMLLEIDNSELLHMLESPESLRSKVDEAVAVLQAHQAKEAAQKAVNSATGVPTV
Sequence of Adenosylmethionine-8-amino-7-oxononanoate aminotransferase (P9WQ81 whole entry): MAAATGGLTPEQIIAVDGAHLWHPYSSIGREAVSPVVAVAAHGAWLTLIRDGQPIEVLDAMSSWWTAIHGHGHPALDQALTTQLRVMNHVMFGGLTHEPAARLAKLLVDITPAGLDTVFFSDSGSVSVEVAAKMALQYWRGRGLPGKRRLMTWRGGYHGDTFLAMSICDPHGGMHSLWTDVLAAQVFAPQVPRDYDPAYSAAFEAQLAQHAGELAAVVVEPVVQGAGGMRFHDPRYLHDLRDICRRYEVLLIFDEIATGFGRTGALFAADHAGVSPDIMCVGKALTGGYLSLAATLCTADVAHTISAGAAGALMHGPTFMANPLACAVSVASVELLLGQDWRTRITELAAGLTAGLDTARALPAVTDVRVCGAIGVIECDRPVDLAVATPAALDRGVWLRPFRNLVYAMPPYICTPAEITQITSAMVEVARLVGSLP
Sequence of Cytochrome P450 2C19 (P33261 whole entry): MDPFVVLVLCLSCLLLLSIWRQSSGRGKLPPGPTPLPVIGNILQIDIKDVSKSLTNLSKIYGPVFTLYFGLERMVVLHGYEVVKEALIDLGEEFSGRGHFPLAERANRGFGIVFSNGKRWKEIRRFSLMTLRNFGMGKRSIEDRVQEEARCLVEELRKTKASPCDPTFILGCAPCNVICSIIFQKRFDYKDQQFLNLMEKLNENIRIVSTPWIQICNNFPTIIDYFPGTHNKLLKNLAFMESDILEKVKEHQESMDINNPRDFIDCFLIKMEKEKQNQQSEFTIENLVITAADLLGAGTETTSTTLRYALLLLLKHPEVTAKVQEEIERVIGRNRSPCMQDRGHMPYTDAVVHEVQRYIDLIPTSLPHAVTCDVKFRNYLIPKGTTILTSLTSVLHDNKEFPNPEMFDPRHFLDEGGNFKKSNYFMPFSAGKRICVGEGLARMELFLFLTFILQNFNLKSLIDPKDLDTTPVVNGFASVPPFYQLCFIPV
Sequence of Cytochrome P450 3A4 (P08684 whole entry): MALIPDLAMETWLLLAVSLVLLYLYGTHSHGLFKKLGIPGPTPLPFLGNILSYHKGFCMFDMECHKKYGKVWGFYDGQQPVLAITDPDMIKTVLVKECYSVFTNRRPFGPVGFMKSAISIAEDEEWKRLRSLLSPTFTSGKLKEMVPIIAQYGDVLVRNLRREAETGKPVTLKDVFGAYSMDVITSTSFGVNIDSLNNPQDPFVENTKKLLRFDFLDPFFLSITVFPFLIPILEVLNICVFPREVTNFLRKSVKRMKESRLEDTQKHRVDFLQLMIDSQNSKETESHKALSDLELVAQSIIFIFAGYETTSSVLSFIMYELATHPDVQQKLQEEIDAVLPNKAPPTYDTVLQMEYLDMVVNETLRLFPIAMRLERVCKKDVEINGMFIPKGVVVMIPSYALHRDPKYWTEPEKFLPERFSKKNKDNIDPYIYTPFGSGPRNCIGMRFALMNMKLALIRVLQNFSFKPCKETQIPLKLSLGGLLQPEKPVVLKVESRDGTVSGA
Sequence of Cytochrome P450 2C9 (P11712 whole entry): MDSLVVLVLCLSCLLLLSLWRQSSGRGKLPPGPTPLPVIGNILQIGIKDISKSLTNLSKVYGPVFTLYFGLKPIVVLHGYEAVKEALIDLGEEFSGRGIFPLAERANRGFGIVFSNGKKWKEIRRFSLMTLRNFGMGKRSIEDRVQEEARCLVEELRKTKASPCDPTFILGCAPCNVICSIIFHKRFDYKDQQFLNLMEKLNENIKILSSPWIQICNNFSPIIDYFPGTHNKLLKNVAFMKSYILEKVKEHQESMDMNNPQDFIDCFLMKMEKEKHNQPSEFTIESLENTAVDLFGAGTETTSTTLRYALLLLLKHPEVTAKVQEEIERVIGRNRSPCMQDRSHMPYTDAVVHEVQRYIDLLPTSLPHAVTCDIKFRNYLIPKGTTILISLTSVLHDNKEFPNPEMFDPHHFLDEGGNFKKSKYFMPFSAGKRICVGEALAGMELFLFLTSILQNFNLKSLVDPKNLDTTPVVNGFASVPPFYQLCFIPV

Q: With `Cc1ccc(-c2nc(NCc3cccnc3)c3ccccc3n2)cc1` as the molecule, how does the IC50 [1] read?
A: Its IC50 is 13.7 µM (active).

Q: What about the IC50 [2] of the same molecule?
A: Its IC50 is 8.04 µM (active).

Q: Which results are given for `O=C(Nc1cccc(-c2nc3ncccc3o2)c1)c1sc2ccccc2c1Cl`?
A: AC50 (Cytochrome P450 3A4): 3.98 µM (inconclusive); AC50 (Cytochrome P450 2C9): 2 µM (inconclusive); AC50 (Cytochrome P450 2C19): 0.355 µM (inconclusive); IC50 [2]: 3.81 µM (active)

Q: Which IC50 [3] does the source give for `O=C(Oc1ccc(OC(=O)N2CCOCC2)cc1)c1ccccc1` here?
A: The IC50 was > 100 µM (inactive).

Q: And the IC50 [4]?
A: Its IC50 is 14.2 µM (active).

Q: And the IC50 [5]?
A: The IC50 was > 100 µM (inactive).

Q: What about the IC50 (Caspase-3) of the same molecule?
A: Its IC50 is 14.8 µM (active).

Q: For `CC(=O)c1ccc(C(=O)N2CCCC(CCC(=O)N(C)CCc3ccccn3)C2)s1` (centres undefined), which AC50 [6] is on record?
A: Its AC50 is 12.4 µM (active).

Q: With `CCOC(=O)c1cnc(SSc2ncc(C(=O)OCC)c(N)n2)nc1N` as the molecule, how does the IC50 [1] read?
A: The IC50 was 14.5 µM (active).

Q: Which EC50 [7] does the source give for `CCS(=O)(=O)c1ccc2c(c1)NC(=O)C(C)(C(=O)O)O2` (centres undefined) here?
A: The EC50 was > 100 µM (inactive).

Q: For `COc1ccc(C)cc1NC(=O)CCS(=O)(=O)c1ccc2c(c1)CC(=O)N2C`, which EC50 [7] is on record?
A: Its EC50 is > 100 µM (inactive).

Q: For `O=C(C1CCOCC1)N1CC[C@@H]2[C@H](CO)Nc3ccc(Br)cc3[C@@H]21`, which AC50 [6] is on record?
A: Its AC50 is 4.43 µM (active).

Q: Which results are given for `Cc1[nH]n(C(N)=S)c(=O)c1/N=N/c1ccc(S(=O)(=O)N2CCCCCC2)cc1`?
A: IC50 [8]: > 66 µM (inactive); IC50 [3]: 2.52 µM (active); IC50 [4]: 9.68 µM (active); IC50 [5]: 15.5 µM (active); EC50 [9]: > 160 µM (inactive); IC50 (Caspase-3): 12.9 µM (active); IC50 [10]: > 66 µM (inactive); EC50 [11]: > 38 µM (not active)

Q: For `COP(=S)(OC)Oc1c(Cl)cc(C)cc1Cl` [TOLCOFOS-METHYL], which AC50 [12] is on record?
A: The AC50 was 79.4 µM (inconclusive).
